Literature values in patent US20180271760A1, “Skin Care Compositions” (priority 2017, published 2018).
Converted amounts (≈) assume the structure as drawn.

Assays:
[1] = in 4 weeks

Structure (SMILES)	solubility in glycerol and glycols (glycerol and glycols)	solubility in water (water, solubility is pH dependent) [µg/mL]	reduction of TEWL [1] [%]
O=C(O)CCCCCCCC(=O)O [Azelaic acid]	soluble	2100 (≈ 11.2 mM)	–
NC(=O)c1cccnc1 [niacinamide]	–	–	24
